Data as given in ChEMBL document CHEMBL3763146 (J Med Chem, 2016).

How the values were obtained:
[1] = target: Beta-3 adrenergic receptor (Rattus norvegicus) (UniProt P26255); test: Agonist activity at rat beta3 adrenergic receptor expressed in CHO cells assessed as accumulation of cAMP after 30 mins by TR-FRET assay relative to (R)-(-)-isoproterenol; type: functional, cell-based
[2] = Fraction unbound in dog at 0.5 mg/kg, iv or 2 mg/kg, po; type: ADME, organism-based, Canis lupus familiaris; settings: in vivo
Cytochrome P450 3A4 = Cytochrome P450 3A4 (Homo sapiens, UniProt P08684); test: Inhibition of CYP3A4 in human liver microsomes assessed as testosterone 6beta-hydroxylation; type: ADME
Cytochrome P450 2C9 = Cytochrome P450 2C9 (Homo sapiens, UniProt P11712); test: Inhibition of CYP2C9 in human liver microsomes assessed as diclofenac alpha'-hydroxylation; type: ADME
[3] = target: T1, Beta-3 adrenergic receptor (Macaca mulatta, UniProt Q28524); test: Agonist activity at rhesus monkey beta3 adrenergic receptor expressed in CHO cells assessed as accumulation of cAMP after 30 mins by TR-FRET assay; type: functional, cell-based
Canis familiaris [4] = test: Dose normalized total AUC in dog at 2 mg/kg, po; type: ADME, organism-based, Canis lupus familiaris; settings: in vivo
[5] = target: Beta-3 adrenergic receptor (Macaca mulatta) (UniProt Q28524); test: Agonist activity at rhesus monkey beta3 adrenergic receptor expressed in CHO cells assessed as accumulation of cAMP after 30 mins by TR-FRET assay relative to (R)-(-)-isoproterenol; type: functional, cell-based
Rhesus monkey [6] = test: Dose normalized total AUC in rhesus monkey at 2 mg/kg, po; type: ADME, organism-based, Macaca mulatta; settings: in vivo
Rattus norvegicus [7] = test: Unbound clearance in rat at 1 mg/kg, iv or 2 mg/kg, po; type: ADME, organism-based; settings: in vivo
[8] = target: Beta-3 adrenergic receptor (Macaca mulatta) (UniProt Q28524); test: Agonist activity at rhesus monkey beta3 adrenergic receptor expressed in CHO cells assessed as accumulation of cAMP after 30 mins by TR-FRET assay in presence of 40% serum relative to (R)-(-)-isoproterenol; type: functional, cell-based
[9] = Oral bioavailability in rhesus monkey at 2 mg/kg; type: ADME, organism-based, Macaca mulatta; settings: in vivo
[10] = target: T2, Beta-3 adrenergic receptor (Homo sapiens, UniProt P13945); test: Agonist activity at human beta3 adrenergic receptor expressed in CHO cells assessed as accumulation of cAMP after 30 mins by TR-FRET assay relative to (R)-(-)-isoproterenol; type: functional, cell-based
Target sequence in this assay (P13945 whole entry, looked up): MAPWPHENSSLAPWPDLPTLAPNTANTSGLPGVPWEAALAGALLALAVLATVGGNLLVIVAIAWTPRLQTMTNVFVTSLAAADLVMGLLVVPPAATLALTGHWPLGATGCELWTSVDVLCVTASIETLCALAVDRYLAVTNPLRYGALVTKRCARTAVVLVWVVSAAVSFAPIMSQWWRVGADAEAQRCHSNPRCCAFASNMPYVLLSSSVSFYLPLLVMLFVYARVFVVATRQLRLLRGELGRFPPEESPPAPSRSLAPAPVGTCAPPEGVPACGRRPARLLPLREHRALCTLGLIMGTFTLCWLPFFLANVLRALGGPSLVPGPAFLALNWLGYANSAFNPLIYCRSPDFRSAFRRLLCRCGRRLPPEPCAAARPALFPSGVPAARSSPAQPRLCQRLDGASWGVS

[11] = Distribution coefficient, logD of the compound at pH 7.4; type: physicochemical; settings: octanol/water
[12] = target: Beta-3 adrenergic receptor (Rattus norvegicus, UniProt P26255); test: Agonist activity at rat beta3 adrenergic receptor expressed in CHO cells assessed as accumulation of cAMP after 30 mins by TR-FRET assay; type: functional, cell-based
[13] = Fraction unbound in rat at 1 mg/kg, iv or 2 mg/kg, po; type: ADME, organism-based; settings: in vivo
[14] = target: Voltage-dependent L-type calcium channel subunit alpha-1C (Homo sapiens, UniProt Q13936); test: Displacement of [3H]-diltiazem from human Cav1.2 channel
Rhesus monkey [15] = test: Unbound clearance in rhesus monkey at 0.5 mg/kg, iv or 2 mg/kg, po; type: ADME, organism-based, Macaca mulatta; settings: in vivo
[16] = target: Voltage-gated inwardly rectifying potassium channel KCNH2 (Homo sapiens, UniProt Q12809); test: Binding affinity to human ERG channel
Canis familiaris [17] = test: Unbound clearance in dog at 0.5 mg/kg, iv or 2 mg/kg, po; type: ADME, organism-based, Canis lupus familiaris; settings: in vivo
[18] = target: Beta-3 adrenergic receptor (Canis lupus familiaris, UniProt O02662); test: Agonist activity at dog beta3 adrenergic receptor expressed in CHO cells assessed as accumulation of cAMP after 30 mins by TR-FRET assay; type: functional, cell-based
[19] = Fraction unbound in rhesus monkey at 0.5 mg/kg, iv or 2 mg/kg, po; type: ADME, organism-based, Macaca mulatta; settings: in vivo
[20] = target: Sodium-dependent serotonin transporter (Homo sapiens, UniProt P31645); test: Inhibition of human SERT expressed in HEK293 cells preincubated for 30 mins followed by fluorescent substrate addition measured after 30 mins by plate reader analysis; type: cell-based
[21] = Induction of phospholidosis in human HepG2 cells incubated overnight by […] in presence of fluorescent labeled phospholipid probe NBD-PE; type: cell-based; settings: read-out: A50
[22] = Solubility of the compound in buffer at pH >= […]; type: physicochemical
[23] = Oral bioavailability in rat at 2 mg/kg; type: ADME, organism-based; settings: in vivo
[24] = target: T2, Beta-3 adrenergic receptor; test: Agonist activity at human adrenergic beta3 receptor expressed in CHO cells assessed as accumulation of cAMP after 30 mins by TR-FRET assay in presence of 40% serum relative to (R)-(-)-isoproterenol; type: functional, cell-based
Target sequence in this assay (P13945 whole entry, looked up): as above

[25] = Oral bioavailability in dog at 2 mg/kg; type: ADME, organism-based, Canis lupus familiaris; settings: in vivo
Rattus norvegicus [26] = test: Dose normalized total AUC in rat at 2 mg/kg, po; type: ADME, organism-based; settings: in vivo
Cytochrome P450 2D6 = Cytochrome P450 2D6 (Homo sapiens, UniProt P10635); test: Inhibition of CYP2D6 in human liver microsomes assessed as dextraomethorphan O-demethylation; type: ADME
[27] = target: T1, Beta-3 adrenergic receptor; test: Agonist activity at rhesus monkey beta3 adrenergic receptor expressed in CHO cells assessed as accumulation of cAMP after 30 mins by TR-FRET assay in presence of 40% serum; type: functional, cell-based
[28] = target: Sodium channel protein type 2 subunit alpha (Homo sapiens, UniProt Q99250); test: Inhibition of human Nav1.2 channel expressed in Xenopus oocytes by two-intracellular microelectrode voltage clamp method; type: cell-based
[29] = Stability in human plasma assessed as parent compound remaining at 24 hrs by LC-MS analysis; type: ADME, cell-free; settings: read-out: Stability
[30] = target: Beta-1 adrenergic receptor (Homo sapiens, UniProt P08588)
Description: Displacement of [125]I-cyanopindolol from recombinant human beta1 adrenergic receptor after 1 hr by scintillation counting method

[31] = Half life in rat at 1 mg/kg, iv or 2 mg/kg, po; type: ADME, organism-based; settings: in vivo
[32] = target: T2, Beta-3 adrenergic receptor; test: Agonist activity at human beta3 adrenergic receptor expressed in CHO cells assessed as accumulation of cAMP after 30 mins by TR-FRET assay; type: functional, cell-based
Target sequence in this assay (P13945 whole entry): as the sequence (P13945 whole entry, looked up) above

[33] = Plasma clearance in rat at 1 mg/kg, iv or 2 mg/kg, po; type: ADME, organism-based
[34] = Stability in rat plasma assessed as parent compound remaining at 24 hrs by LC-MS analysis; type: ADME, cell-free; settings: read-out: Stability
[35] = target: Beta-2 adrenergic receptor (Homo sapiens, UniProt P07550)
Description: Displacement of [125]I-cyanopindolol from human recombinant beta2 adrenergic receptor after 1 hr by scintillation counting method

[36] = Intrinsic clearance in human liver microsomes; type: ADME; settings: read-out: CLH
[37] = Stability in rhesus monkey plasma assessed as parent compound remaining at 24 hrs by LC-MS analysis; type: ADME, cell-free, Macaca mulatta; settings: read-out: Stability
[38] = Intrinsic clearance in dog liver microsomes; type: ADME, Canis lupus familiaris; settings: read-out: CLH
[39] = Stability in dog plasma assessed as parent compound remaining at 24 hrs by LC-MS analysis; type: ADME, cell-free, Canis lupus familiaris; settings: read-out: Stability
[40] = target: Sodium-dependent dopamine transporter (Homo sapiens, UniProt Q01959); test: Inhibition of human dopamine transporter
[41] = Half life in dog at 0.5 mg/kg, iv or 2 mg/kg, po; type: ADME, organism-based, Canis lupus familiaris; settings: in vivo
[42] = Intrinsic clearance in rhesus monkey liver microsomes; type: ADME, Macaca mulatta; settings: read-out: CLH
[43] = Plasma clearance in dog at 0.5 mg/kg, iv or 2 mg/kg, po; type: ADME, organism-based, Canis lupus familiaris
[44] = Intrinsic clearance in rat liver microsomes; type: ADME; settings: read-out: CLH

Voltage-dependent L-type calcium channel subunit alpha-1C, sequence (Q13936 whole entry): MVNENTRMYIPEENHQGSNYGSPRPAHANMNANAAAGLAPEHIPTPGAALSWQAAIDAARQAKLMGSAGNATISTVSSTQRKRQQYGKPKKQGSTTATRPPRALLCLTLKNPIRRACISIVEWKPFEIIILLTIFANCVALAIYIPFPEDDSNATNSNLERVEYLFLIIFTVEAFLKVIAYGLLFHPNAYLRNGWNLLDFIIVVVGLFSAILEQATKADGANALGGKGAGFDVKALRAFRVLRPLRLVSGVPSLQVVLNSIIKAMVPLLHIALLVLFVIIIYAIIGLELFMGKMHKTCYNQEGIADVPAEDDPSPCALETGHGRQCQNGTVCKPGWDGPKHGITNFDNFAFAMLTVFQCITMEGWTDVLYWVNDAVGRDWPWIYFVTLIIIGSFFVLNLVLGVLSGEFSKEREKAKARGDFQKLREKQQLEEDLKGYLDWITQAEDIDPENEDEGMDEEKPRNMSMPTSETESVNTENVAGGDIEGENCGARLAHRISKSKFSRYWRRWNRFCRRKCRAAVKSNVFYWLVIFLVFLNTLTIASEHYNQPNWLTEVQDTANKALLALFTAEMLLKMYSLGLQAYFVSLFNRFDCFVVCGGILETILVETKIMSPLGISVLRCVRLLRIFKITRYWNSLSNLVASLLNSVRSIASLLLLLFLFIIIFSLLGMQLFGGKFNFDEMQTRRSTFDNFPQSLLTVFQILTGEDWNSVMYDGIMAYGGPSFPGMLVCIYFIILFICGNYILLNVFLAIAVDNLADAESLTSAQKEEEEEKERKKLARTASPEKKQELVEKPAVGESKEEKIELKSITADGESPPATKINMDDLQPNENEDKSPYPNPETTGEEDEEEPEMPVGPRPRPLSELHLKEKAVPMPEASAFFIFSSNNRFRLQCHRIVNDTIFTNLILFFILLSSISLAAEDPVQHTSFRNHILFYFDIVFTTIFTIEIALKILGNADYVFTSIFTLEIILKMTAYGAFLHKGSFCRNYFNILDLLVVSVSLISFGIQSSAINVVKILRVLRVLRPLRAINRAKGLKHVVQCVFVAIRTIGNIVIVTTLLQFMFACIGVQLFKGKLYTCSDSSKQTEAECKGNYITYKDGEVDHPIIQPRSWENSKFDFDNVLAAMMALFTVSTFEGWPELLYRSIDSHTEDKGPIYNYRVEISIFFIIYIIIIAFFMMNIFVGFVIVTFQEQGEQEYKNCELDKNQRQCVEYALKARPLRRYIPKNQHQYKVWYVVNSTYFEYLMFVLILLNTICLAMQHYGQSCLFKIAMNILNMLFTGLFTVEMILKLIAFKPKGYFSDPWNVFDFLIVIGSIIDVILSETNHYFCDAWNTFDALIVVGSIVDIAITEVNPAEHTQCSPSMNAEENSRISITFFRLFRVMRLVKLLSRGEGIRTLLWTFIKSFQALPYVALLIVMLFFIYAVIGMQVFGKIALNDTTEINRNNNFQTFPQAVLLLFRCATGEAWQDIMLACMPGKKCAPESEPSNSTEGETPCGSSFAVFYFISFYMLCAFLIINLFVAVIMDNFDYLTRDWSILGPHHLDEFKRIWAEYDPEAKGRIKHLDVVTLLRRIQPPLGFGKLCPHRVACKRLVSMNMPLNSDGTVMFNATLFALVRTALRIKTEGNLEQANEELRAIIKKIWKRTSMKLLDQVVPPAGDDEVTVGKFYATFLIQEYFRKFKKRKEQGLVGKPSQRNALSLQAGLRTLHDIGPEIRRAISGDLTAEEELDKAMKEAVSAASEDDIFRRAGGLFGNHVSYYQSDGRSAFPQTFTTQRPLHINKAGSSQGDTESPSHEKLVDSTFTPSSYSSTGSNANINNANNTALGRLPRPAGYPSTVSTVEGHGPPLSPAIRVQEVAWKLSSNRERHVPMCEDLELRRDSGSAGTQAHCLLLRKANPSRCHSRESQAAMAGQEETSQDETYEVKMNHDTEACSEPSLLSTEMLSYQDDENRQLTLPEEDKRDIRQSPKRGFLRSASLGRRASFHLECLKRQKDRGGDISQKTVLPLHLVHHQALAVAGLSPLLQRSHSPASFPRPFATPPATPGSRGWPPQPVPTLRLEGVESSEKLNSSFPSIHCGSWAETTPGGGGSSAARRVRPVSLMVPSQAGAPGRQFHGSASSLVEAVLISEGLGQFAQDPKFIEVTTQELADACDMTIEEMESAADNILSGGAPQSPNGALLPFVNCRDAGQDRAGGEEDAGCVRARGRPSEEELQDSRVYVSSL
Sodium-dependent serotonin transporter, sequence (P31645 whole entry): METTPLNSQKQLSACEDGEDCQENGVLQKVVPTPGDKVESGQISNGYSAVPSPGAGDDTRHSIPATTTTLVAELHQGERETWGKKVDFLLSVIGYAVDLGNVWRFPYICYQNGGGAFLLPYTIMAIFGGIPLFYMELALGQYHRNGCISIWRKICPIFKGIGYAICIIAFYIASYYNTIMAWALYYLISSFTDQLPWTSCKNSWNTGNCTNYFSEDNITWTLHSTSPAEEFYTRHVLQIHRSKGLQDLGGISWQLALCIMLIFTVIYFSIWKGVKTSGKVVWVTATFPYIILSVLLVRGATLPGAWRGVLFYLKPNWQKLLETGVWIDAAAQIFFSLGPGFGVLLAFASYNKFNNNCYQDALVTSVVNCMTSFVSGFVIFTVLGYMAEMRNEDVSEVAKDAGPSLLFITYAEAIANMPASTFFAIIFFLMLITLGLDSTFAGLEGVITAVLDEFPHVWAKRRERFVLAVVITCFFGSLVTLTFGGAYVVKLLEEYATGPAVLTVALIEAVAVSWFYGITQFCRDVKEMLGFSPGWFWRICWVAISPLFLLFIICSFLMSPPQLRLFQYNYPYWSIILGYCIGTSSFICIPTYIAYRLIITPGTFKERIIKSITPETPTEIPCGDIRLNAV
T1 sequence (Q28524 whole entry): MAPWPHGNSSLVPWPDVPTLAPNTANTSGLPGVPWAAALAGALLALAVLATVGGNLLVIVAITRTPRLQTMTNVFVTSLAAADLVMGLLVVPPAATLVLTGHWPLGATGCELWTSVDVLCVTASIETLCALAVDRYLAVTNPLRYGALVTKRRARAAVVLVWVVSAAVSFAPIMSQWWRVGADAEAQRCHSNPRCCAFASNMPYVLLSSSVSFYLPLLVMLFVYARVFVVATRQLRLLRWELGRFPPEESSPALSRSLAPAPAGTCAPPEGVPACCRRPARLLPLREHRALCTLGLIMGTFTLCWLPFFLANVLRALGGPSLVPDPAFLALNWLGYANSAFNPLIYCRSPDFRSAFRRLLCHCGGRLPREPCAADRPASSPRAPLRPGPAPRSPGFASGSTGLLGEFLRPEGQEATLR
Beta-3 adrenergic receptor (Macaca mulatta), sequence (Q28524 whole entry): as above
Voltage-gated inwardly rectifying potassium channel KCNH2, sequence (Q12809 whole entry): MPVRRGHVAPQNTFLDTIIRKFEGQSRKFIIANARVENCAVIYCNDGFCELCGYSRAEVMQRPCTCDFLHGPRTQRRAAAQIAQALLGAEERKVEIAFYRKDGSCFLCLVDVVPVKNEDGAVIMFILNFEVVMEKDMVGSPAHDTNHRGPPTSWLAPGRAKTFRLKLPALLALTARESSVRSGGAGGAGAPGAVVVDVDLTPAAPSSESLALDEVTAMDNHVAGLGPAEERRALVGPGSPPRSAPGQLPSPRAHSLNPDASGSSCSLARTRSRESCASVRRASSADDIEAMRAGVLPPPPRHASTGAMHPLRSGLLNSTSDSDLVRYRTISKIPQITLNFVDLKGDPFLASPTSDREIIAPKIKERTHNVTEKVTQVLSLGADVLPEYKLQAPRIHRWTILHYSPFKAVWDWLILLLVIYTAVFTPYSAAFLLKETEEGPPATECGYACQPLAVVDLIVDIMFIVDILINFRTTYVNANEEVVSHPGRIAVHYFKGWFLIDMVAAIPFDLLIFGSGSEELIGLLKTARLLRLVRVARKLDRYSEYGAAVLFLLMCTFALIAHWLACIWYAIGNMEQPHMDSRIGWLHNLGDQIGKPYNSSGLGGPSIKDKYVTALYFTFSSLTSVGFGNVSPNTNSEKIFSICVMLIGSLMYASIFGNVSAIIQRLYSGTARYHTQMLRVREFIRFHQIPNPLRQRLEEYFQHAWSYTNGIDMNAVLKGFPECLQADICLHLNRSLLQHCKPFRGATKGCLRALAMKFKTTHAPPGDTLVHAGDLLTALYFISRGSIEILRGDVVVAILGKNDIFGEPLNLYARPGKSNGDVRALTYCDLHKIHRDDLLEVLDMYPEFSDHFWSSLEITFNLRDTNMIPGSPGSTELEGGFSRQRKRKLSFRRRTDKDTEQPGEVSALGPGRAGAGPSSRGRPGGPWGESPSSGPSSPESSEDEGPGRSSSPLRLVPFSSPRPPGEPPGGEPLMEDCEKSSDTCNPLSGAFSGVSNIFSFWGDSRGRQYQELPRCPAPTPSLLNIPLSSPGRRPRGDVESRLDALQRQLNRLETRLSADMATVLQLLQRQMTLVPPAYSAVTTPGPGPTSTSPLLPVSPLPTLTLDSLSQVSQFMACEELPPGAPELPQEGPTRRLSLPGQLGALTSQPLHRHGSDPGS

O=S(=O)(Nc1ccc(CCNC[C@H](O)c2cccnc2)cc1)c1ccc(-c2nc(-c3ccc(C(F)(F)F)cc3)cs2)cc1
max activation [1]: 17%
fraction unbound [2]: ≤ 0.02
IC50 (Cytochrome P450 3A4): 9.3 µM
IC50 (Cytochrome P450 2C9): 24 µM
EC50 [3]: 0.00043 µM
AUC/dose (Canis familiaris [4]): 290 nM·h/mg/kg
max activation [5]: 81%
AUC/dose (Rhesus monkey [6]): 50 nM·h/mg/kg
CL free (Rattus norvegicus [7]): > 3100 mL/min/kg
max activation [8]: 17%
bioavailability [9]: 4%
max activation [10]: 93%
logD [11]: 4.7
EC50 [12]: 3.4 µM
fraction unbound [13]: ≤ 0.02
IC50 [14]: 1.7 µM
CL free (Rhesus monkey [15]): > 950 mL/min/kg
IC50 [16]: 0.22 µM
CL free (Canis familiaris [17]): > 1000 mL/min/kg
EC50 [18]: 0.025 µM
fraction unbound [19]: ≤ 0.02
IC50 [20]: 5 µM
AC50 [21]: 0.56 µM
solubility [22]: < 100 µg/mL
bioavailability [23]: 17%
max activation [24]: 106%
bioavailability [25]: 27%
AUC/dose (Rattus norvegicus [26]): 70 nM·h/mg/kg
IC50 (Cytochrome P450 2D6): 11 µM
EC50 [27]: 0.017 µM

O=C(Nc1ccc(C[C@@H]2CC[C@H]([C@H](O)c3ccccc3)N2)cc1)[C@@H]1CCc2cccc(=O)n21
IC50 [28]: > 30 µM
remaining at 24 h [29]: 100%
AUC/dose (Canis familiaris [4]): 1500 nM·h/mg/kg
IC50 [30]: > 20 µM
half-life [31]: 3 h
EC50 [32]: 0.00062 µM
clearance [33]: 77 mL/min/kg
remaining at 24 h [34]: 92%
max activation [10]: 94%
IC50 [35]: > 20 µM
CLint scaled [36]: 19 mL/min/kg
remaining at 24 h [37]: 72%
IC50 [14]: > 30 µM
CLint scaled [38]: 13 mL/min/kg
remaining at 24 h [39]: 92%
IC50 [40]: 4.8 µM
half-life [41]: 6 h
IC50 [20]: 7.1 µM
AC50 [21]: 33 µM
CLint scaled [42]: 137 mL/min/kg
bioavailability [23]: 21%
bioavailability [25]: 100%
clearance [43]: 26 mL/min/kg
AUC/dose (Rattus norvegicus [26]): 110 nM·h/mg/kg
CLint scaled [44]: 29 mL/min/kg
